# Measured values: paper PMC9495423, “Identification of the Natural Steroid Sapogenin Diosgenin as a Direct Dual-Specific RORα/γ Inverse Agonist” (Biomedicines, 2022)
# Columns and labels:
# [1] = biological target: T1, RORα (Homo sapiens, UniProt P35398); assay: RORα-Gal4 luciferase reporter assay in HEK293 cells (inverse agonism); type: cell-based
# T1 construct: gene RORA; RORα-Gal4
# T1 sequence (P35398 1-523): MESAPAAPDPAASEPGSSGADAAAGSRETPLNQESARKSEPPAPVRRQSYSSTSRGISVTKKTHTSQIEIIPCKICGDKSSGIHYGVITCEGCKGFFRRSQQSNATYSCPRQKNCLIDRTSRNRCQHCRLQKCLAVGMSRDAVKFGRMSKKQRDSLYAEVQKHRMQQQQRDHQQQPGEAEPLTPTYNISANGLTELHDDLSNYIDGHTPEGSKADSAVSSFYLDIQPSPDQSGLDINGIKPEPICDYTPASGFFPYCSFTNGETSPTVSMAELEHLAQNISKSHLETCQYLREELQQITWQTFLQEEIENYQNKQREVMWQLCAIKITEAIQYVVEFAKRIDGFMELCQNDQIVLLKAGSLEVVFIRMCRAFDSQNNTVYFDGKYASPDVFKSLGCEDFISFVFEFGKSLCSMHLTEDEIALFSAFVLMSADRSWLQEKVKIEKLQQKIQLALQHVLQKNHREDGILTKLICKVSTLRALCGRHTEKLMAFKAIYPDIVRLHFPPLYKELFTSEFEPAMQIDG
# [2] = biological target: T2, RORγ (Homo sapiens, UniProt P51449); assay: RORγ-Gal4 luciferase reporter assay in HEK293 cells (inverse agonism); full-length RORγ-RORE assay IC50 […]; type: cell-based
# T2 construct: gene RORC; also full-length RORγ transcript variant 1
# T2 sequence (P51449 265-507 limits assumed): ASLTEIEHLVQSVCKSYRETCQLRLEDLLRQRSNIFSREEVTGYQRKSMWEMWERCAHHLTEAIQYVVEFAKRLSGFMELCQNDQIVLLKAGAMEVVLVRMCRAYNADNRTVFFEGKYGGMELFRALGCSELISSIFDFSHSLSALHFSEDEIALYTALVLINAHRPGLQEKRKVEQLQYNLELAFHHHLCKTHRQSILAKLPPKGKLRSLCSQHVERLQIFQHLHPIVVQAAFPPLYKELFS
smiles,measurement,setting,value
C[C@@H]1CC[C@@]2(OC1)O[C@H]1C[C@H]3[C@@H]4CC=C5C[C@@H](O)CC[C@]5(C)[C@H]4CC[C@]3(C)[C@H]1[C@@H]2C [diosgenin],IC50,[1],2170 nM
same,IC50,[2],1730 nM
